The values below come from ChEMBL document CHEMBL1151638, “Hippamine, a Minor Alkaloid From Sternbergia lutea” (1984).

For the assay, the system named is Solanum tuberosum. Briefly: Inhibition of ascorbic acid biosynthesis in potato tuber at 20 uM. It is filed as functional.

One may read the inhibition as the relative decrease from the control value, in per cent. The low end stands for a response near the control, the high end for a response far below the control.

`CO[C@H]1C=C2CCN3Cc4cc5c(cc4[C@H]([C@@H]1O)[C@@H]23)OCO5` [HIPPPAMINE] returned an inhibition at 20 µM of 58%.
As for `O[C@H]1[C@H]2c3cc4c(cc3CN3CCC(=C[C@@H]1O)[C@H]23)OCO4` [LYCORINE], the inhibition at 20 µM came to 80%.
